Measurements from the supplement of paper PMC10627819.

Tests used:
[1] = tested on: S. pneumoniae D39V; experiment: fitness (endpoint OD595 vs no drug) (fraction); higher = more growth
How it was run: (§1)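 Fitness compares growth at the stationary-phase transition with the robust mean of no-drug control wells, as a ratio of optical densities. The ratio is capped at 1. Wells of 384-well plates held 30 µl, or 55 µl for S. pneumoniae, inoculated at OD595 0.01. Readings at OD595 every 30 min for 14 h at 37 °C were corrected against the first reading.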

[2] = tested on: S. aureus Newman; experiment: as above
How it was run: as §1
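Further: OD595 on entry to stationary phase over no-drug wells; at most 1.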

CO[C@@]12[C@H](COC(N)=O)C3=C(C(=O)C(C)=C(N)C3=O)N1C[C@@H]1N[C@@H]12 [Mitomycin C] + CCC(C)C1C(=O)NC(=C)C(=O)NC(C(=O)NC(CSCC(C(=O)N1)NC(=O)/C(=C/C)/NC(=O)C(C(C)CC)N)C(=O)NC2C(SCC(NC(=O)CNC(=O)C3CCCN3C2=O)C(=O)NC(CCCCN)C(=O)NC4C(SCC(NC(=O)CNC(=O)C(NC(=O)C(NC(=O)C(NC(=O)CNC4=O)C)CC(C)C)CCSC)C(=O)NC(CC(=O)N)C(=O)NC(CCSC)C(=O)NC(CCCCN)C(=O)NC5C(SCC6C(=O)NC(C(=O)NC(CSC(C(C(=O)N6)NC(=O)C(NC5=O)C)C)C(=O)NC(CO)C(=O)NC(C(C)CC)C(=O)NC(CC7=CN=CN7)C(=O)NC(C(C)C)C(=O)NC(=C)C(=O)NC(CCCCN)C(=O)O)CC8=CN=CN8)C)C)C)CC(C)C [Nisin]
fitness, [1], main component drawn
Settings | first compound 0.001075 µg/mL | first compound 0.002 µg/mL | first compound 0.00215 µg/mL | first compound 0.004 µg/mL | first compound 0.0043 µg/mL | first compound 0.008 µg/mL
partner 0.4275 µg/mL | – | 0.982 | – | 0.838 | – | 0.636
partner 0.855 µg/mL | – | 0.943 | – | 0.844 | – | 0.538
partner 1.6 µg/mL | 0.0489 | – | 0.0715 | – | 0.0313 | –
partner 1.71 µg/mL | – | 0.0782 | – | 0.0797 | – | 0.0351
partner 3.2 µg/mL | 0.0397 | – | 0.038 | – | 0.0122 | –
partner 6.4 µg/mL | 0.0247 | – | 0.0066 | – | 0.0194 | –

CO[C@@]12[C@H](COC(N)=O)C3=C(C(=O)C(C)=C(N)C3=O)N1C[C@@H]1N[C@@H]12 [Mitomycin C] + CN(C)c1cc(NC(=O)CNC(C)(C)C)c(O)c2c1C[C@H]1C[C@H]3[C@H](N(C)C)C(O)=C(C(N)=O)C(=O)[C@@]3(O)C(O)=C1C2=O [Tigecycline]
fitness
Settings | first compound 0.001075 µg/mL | first compound 0.002 µg/mL | first compound 0.00215 µg/mL | first compound 0.004 µg/mL | first compound 0.0043 µg/mL | first compound 0.008 µg/mL | first compound 0.0156 µg/mL | first compound 0.0312 µg/mL | first compound 0.0625 µg/mL
[1], partner 0.65 µg/mL | 0.89 | 0.878 | 0.848 | 0.804 | 0.819 | 0.688 | – | – | –
[1], partner 1.3 µg/mL | 0.877 | 0.888 | 0.859 | 0.764 | 0.822 | 0.625 | – | – | –
[1], partner 2.6 µg/mL | 0.893 | 0.816 | 0.844 | 0.806 | 0.783 | 0.627 | – | – | –
[2], partner 0.039 µg/mL | – | – | – | – | – | – | 0.7 | 0.661 | 0.551
[2], partner 0.078 µg/mL | – | – | – | – | – | – | 0.725 | 0.655 | 0.558
[2], partner 0.156 µg/mL | – | – | – | – | – | – | 0.746 | 0.679 | 0.505

CO[C@@]12[C@H](COC(N)=O)C3=C(C(=O)C(C)=C(N)C3=O)N1C[C@@H]1N[C@@H]12 [Mitomycin C] + CN[C@@H]1[C@H](O[C@H]2[C@H](O[C@H]3[C@H](O)[C@@H](O)[C@H](N=C(N)N)[C@@H](O)[C@@H]3N=C(N)N)O[C@@H](C)[C@]2(O)C=O)O[C@@H](CO)[C@H](O)[C@H]1O [Streptomycin]
fitness
Settings | partner 1 µg/mL | partner 2 µg/mL | partner 4 µg/mL | partner 8 µg/mL
[1], first compound 0.001075 µg/mL | – | 0.883 | 0.913 | 0.939
[1], first compound 0.002 µg/mL | – | – | 0.857 | 0.802
[1], first compound 0.00215 µg/mL | – | 0.838 | 0.827 | 0.834
[1], first compound 0.004 µg/mL | – | – | 0.712 | 0.668
[1], first compound 0.0043 µg/mL | – | 0.701 | 0.741 | 0.717
[1], first compound 0.008 µg/mL | – | – | 0.54 | 0.56
[2], first compound 0.0156 µg/mL | 0.727 | 0.683 | – | –
[2], first compound 0.0312 µg/mL | 0.666 | 0.677 | 0.523 | –
[2], first compound 0.0625 µg/mL | 0.473 | 0.402 | 0.272 | –

fitness, [1], one replicate
Settings | first compound 0.002 µg/mL | first compound 0.004 µg/mL | first compound 0.008 µg/mL
partner 2 µg/mL | 0.857 | 0.749 | 0.666
partner 16 µg/mL | 0.711 | 0.544 | 0.304
